The results in this text go back to patent EP1157000B1 (Warner-Lambert Company LLC, priority 1999, dated 2001).

Counter-ions that a name gives are not always drawn.

The assay concerns the target T1, rBCATc (Rattus norvegicus, UniProt P54690).
T1 construct: The supernatant was dialyzed with at least three changes of dialysis buffer; from tissue; host or cells: rat brain (high-speed supernatant of homogenate, dialyzed)
T1 sequence (P54690 1-411): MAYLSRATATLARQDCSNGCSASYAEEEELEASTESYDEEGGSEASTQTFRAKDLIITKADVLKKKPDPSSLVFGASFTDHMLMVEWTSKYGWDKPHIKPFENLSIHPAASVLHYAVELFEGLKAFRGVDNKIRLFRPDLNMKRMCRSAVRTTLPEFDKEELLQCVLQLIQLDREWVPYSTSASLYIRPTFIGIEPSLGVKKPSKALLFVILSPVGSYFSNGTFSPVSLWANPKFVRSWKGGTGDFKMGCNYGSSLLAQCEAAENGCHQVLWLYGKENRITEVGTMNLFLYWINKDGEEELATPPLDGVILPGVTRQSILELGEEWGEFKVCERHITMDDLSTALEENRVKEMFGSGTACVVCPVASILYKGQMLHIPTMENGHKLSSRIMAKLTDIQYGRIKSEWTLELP
As to the kind of experiment: Assay of BCAT ([14C] L-leucine transamination, rat brain supernatant enzyme). Format: biochemical. The note with it: 25 µM [14C] L-leucine, 10 mM 2-oxoglutarate, pH 8.3, 10 min, 22 °C; read-out: rBCATc IC50. On the procedure: Enzyme preparation: Frozen rat brains were thawed on ice and minced into fine pieces. […] The samples were homogenized in Potters homogenizer (B. Bran Biotech International) at 500 rpm for ten strokes, followed by additional ten strokes at 800 rpm. The homogenates were centrifuged in Beckman J2-M1 centrifuge with rotor JA-20 at 19, 000 rpm for 1 hr. […] The resulting enzyme was stored at -80 °C for further assays.
The solutions for the reaction mixture were made in 10-fold concentrations. After 10 min incubation at room temperature (22 °C), the reaction was stopped by adding 100 µl of 15 mM p-nitrophenyl hydrazine in 2 M HCL. After a few minutes, 1 mL of a toluene-based scintillation liquid (4.5 g of PPO and 0.5 g ofbis-MSB in 1 liter of toluene) was added, the tube was capped and mixed thoroughly with a Vortex mixer. […] Six hundreds µl of organic layer from each tube was placed into scintillation vials, followed by adding 10 ml of scintillation cocktail for counting.
As a reminder, the IC50 is the concentration at which inhibition is half-maximal. Take `CCC(C)CNCC1(CC(=O)O)C[C@H](C)C[C@H](C)C1` (stereo partly drawn) [Example 42, {(3R, 5S)-3,5-Dimethyl-1-[(2-methyl-butylamino)-methyl]-cyclohexyl}-acetic acid; hydrochloride salt]: the IC50 amounted to 669 µM.
On to `CC(CO)NCC1(CC(=O)O)C[C@H](C)C[C@H](C)C1` (stereo partly drawn) [Example 43, {(3R, 5S)-1-[(2-Hydroxy-1-methyl-ethylamino)-methyl]-3,5-dimethyl-cyclohexyl}-acetic acid; hydrochloride salt], for which the IC50 came out at 2080 µM.
On to `COC(CNCC1(CC(=O)O)C[C@H](C)C[C@H](C)C1)OC` (stereo partly drawn) [Example 44, {(3R, 5S)-1-[(2,2-Dimethoxy-ethylamino)-methyl]-3,5-dimethylcyclohexyl}-acetic acid; hydrochloride salt], for which the IC50 came to 2730 µM.
Turning to `C[C@@H]1C[C@H](C)CC(CNCC2CCCC2)(CC(=O)O)C1` (stereo partly drawn) [Example 45, {(3R, 5S)-1-[(Cyclopentylmethyl-amino)-methyl]-3,5-dimethylcyclohexyl}-acetic acid; hydrochloride salt], the IC50 came out at 1330 µM.
The value for `C[C@@H]1C[C@H](C)CC(CNCC2CCCCC2)(CC(=O)O)C1` (stereo partly drawn) [Example 46, {(3R, 5S)-1-[(Cyclohexylmethyl-amino)-methyl]-3,5-dimethylcyclohexyl}-acetic acid; hydrochloride salt] was 1130 µM; that for `C[C@@H]1C[C@H](C)CC(CNC2CCCCC2)(CC(=O)O)C1` (stereo partly drawn) [Example 47, ((3R, 5S)-1-Cyclohexylaminomethyl-3,5-dimethyl-cyclohexyl)-acetic acid; hydrochloride salt] was 15600 µM; that for `C[C@@H]1C[C@H](C)CC(CC(=O)O)(CC(=O)O)C1` [Example 48, ((3R,5S)-1-Carboxymethyl-3,5-dimethyl-cyclohexyl)-acetic acid] was 8530 µM.
Then `C[C@@H]1C[C@H](C)C[C@](CO)(CC(=O)O)C1` [Example 49, trans-((3R, 5S)-1-Hydroxymethyl-3,5-dimethyl-cyclohexyl-acetic acid; hydrochloride salt], with 84 µM; and `C[C@@H]1C[C@H](C)C[C@@](CO)(CC(=O)O)C1` [Example 50, cis-((3R, 5S)-1-Hydroxymethyl-3,5-dimethyl-cyclohexyl-acetic acid; hydrochloride salt], with 842 µM; and `CN(C)CC1(CC(=O)O)CCCCC1` [Example 51, (1-Dimethylaminomethyl-cyclohexyl)-acetic acid; hydrochloride salt], with above 10000 µM.
The value for `CCCCNCC1(CC(=O)O)CCCCC1` [Example 52, (1-Butylaminomethyl-cyclohexyl)-acetic acid; hydrochloride salt] was 2520 µM.
Turning to `COC(CNCC1(CC(=O)O)CCCCC1)OC` [Example 53, {1-[2,2-Dimethoxy-ethylamino)-methyl]-cyclohexyl}-acetic acid; hydrochloride salt], the IC50 came to 3340 µM.
For the compound `CNCC1(CC(=O)O)CCCCC1` [Example 54, (1-methylaminomethyl-cyclohexyl)-acetic acid; hydrochloride salt], the half-maximal inhibitory concentration (IC50) was 217 µM.
Turning to `CN(Cc1ccccc1)CC1(CC(=O)O)CCCCC1` [Example 55, {1-[(Benzyl-methyl-amino)-methyl]-cycloheayl}-acetic acid; hydrochloride salt], the IC50 was determined as 9240 µM.
Turning to `C[C@@H]1C[C@H](C)CC(CO)(CC(=O)O)C1` (stereo partly drawn) [Example 58, ((3R, 5S)-1-Hydroxymethyl-3,5-dimethyl-cyclohexyl)-acetic acid; sodium salt], the IC50 came to 179 µM.
`CCC1CCC(CN)(CC(=O)O)CC1` (centres unmarked) [Example 60, (1-Aminomethyl-4-ethyl-cyclohexyl)-acetic acid; hydrochloric salt]: the IC50 came to 11500 µM.
The value for `CCCC1CCC(CN)(CC(=O)O)CC1` (centres unmarked) [Example 61, (1-Aminomethyl-4-propyl-cyclohexyl)-acetic acid; hydrochloric salt] was 114 µM.
